In US20230113037A1 (Bayer Aktiengesellschaft, priority 2019, published 2023):
Where two headings read alike, the source gives them in different places.

Tests used:
AHR [1] = target: T1, AHR (Mus musculus, UniProt P30561); experiment: In vitro assay 3: antagonism in mouse cell line (AHR transactivation, firefly luciferase reporter, kynurenic acid prestimulated); format: cell-based
T1 sequence (P30561 1-848 P471L/N533S/M589L): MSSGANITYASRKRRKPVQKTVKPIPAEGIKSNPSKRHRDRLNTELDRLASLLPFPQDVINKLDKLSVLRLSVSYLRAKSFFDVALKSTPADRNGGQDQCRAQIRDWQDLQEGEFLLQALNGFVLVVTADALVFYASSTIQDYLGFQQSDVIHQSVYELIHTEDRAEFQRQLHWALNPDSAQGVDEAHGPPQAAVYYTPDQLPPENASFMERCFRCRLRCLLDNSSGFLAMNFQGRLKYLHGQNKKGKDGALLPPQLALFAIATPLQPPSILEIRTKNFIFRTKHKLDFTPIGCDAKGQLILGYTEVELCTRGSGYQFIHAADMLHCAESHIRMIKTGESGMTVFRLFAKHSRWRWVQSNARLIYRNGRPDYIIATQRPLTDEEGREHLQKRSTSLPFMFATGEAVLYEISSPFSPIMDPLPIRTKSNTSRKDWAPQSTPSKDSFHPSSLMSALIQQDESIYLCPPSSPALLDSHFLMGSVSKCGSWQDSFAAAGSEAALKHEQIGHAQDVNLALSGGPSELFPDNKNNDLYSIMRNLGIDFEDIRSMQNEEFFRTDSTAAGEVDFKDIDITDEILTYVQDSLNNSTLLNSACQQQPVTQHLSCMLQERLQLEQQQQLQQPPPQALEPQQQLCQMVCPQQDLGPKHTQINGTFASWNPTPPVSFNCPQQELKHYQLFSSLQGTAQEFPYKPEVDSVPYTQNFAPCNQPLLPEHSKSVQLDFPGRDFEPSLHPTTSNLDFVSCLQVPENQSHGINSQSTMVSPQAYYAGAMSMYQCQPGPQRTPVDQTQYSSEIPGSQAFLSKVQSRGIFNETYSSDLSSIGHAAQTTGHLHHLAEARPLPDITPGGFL
Outline: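 Luminescence from an AHR-dependent DRE-luciferase reporter, stably integrated in mouse cells, quantifies blockade of kynurenic acid-driven activation. Unstimulated cells mark maximal inhibition; normalization uses both control types, and multiply tested compounds carry mean or median values.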

AHR [2] = target: T2, AHR (Homo sapiens, UniProt P35869); experiment: In vitro assay 1: antagonism in human cell line (AHR transactivation, firefly luciferase reporter, kynurenic acid prestimulated); format: cell-based; conditions: AHR Antagonism Human IC50 [M]
T2 construct: U87 MG glioblastoma cells (ATCC #HTB-14) endogenously expressing AHR; endogenous in cells; host or cells: U87 MG glioblastoma cells (ATCC #HTB-14)
T2 sequence (P35869 11-848): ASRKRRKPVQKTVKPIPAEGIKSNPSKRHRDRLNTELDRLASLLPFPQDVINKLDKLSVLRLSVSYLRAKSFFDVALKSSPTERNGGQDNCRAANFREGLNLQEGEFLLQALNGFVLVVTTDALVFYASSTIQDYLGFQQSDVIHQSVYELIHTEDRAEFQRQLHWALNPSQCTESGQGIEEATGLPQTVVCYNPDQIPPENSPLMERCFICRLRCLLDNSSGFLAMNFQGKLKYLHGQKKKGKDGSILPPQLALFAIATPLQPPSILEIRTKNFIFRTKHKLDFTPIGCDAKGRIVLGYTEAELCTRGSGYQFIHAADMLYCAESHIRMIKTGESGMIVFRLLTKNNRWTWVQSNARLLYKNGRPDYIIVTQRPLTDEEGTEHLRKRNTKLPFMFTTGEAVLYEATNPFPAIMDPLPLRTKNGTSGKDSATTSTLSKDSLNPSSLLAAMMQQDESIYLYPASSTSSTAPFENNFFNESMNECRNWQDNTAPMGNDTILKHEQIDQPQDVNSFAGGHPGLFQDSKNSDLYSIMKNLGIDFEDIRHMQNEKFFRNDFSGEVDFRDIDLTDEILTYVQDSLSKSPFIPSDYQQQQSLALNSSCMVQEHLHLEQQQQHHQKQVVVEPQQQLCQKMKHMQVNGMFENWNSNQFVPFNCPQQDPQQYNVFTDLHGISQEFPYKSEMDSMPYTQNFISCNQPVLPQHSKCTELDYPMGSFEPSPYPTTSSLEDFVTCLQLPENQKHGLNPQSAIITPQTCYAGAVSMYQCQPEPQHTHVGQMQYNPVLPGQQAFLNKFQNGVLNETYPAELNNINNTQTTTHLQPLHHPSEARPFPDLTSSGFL
Outline: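 Antagonism is measured against kynurenic acid prestimulation in U87 MG glioblastoma cells carrying stable DRE-luciferase and Renilla reporters. Positive inhibition control: 150 μM kynurenic acid with 5 μM staurosporine. Values are normalized to controls; repeats are averaged or given as medians.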

[3] = mouse Hepa 1c1c7 cells, 200 μM kynurenic acid, 20 hours, read-out: AHR Antagonism Mouse IC50

Compound	IC50 (AHR [1]; [3]) [nM]	IC50 (AHR [2]) [M]	IC50 (AHR [1]; read-out: AHR Antagonism Mouse IC50, mouse Hepa 1c1c7 cells, 200 μM kynurenic acid, 20 hours) [nM]
Cc1n[nH]c(C)c1-c1nc2c3ccccc3nc(N[C@@H]3CCCCNC3=O)n2n1 [Example 536, (3R)-3-{[2-(3,5-dimethyl-1H-pyrazol-4-yl)[1,2,4]triazolo[1,5-c]quinazolin-5-yl]amino}azepan-2-one]	94.7	8.6e-08	–
O=C1NCCCC[C@H]1Nc1nc2ccccc2c2nc(-c3ccc(Br)o3)nn12 [Example 537, (3R)-3-{[2-(5-bromofuran-2-yl)[1,2,4]triazolo[1,5-c]quinazolin-5-yl]amino}azepan-2-one]	1.9	4.31e-09	–
Cc1cscc1-c1nc2c3ccccc3nc(N[C@@H]3CCCCNC3=O)n2n1 [Example 538, (3R)-3-{[2-(4-methylthiophen-3-yl)[1,2,4]triazolo[1,5-c]quinazolin-5-yl]amino}azepan-2-one]	0.646	8.79e-10	–
Cc1cscc1-c1nc2c3ccccc3nc(N[C@H]3CCCCNC3=O)n2n1 [Example 539, (3S)-3-{[2-(4-methylthiophen-3-yl)[1,2,4]triazolo[1,5-c]quinazolin-5-yl]amino}azepan-2-one]	7.71	6.16e-08	–
Cc1cscc1-c1nc2c3ccccc3nc(N[C@@H]3CCCNC3=O)n2n1 [Example 540]	6.24	6.05e-08	–
Cc1cscc1-c1nc2c3ccccc3nc(N[C@@H]3CCNC3=O)n2n1 [Example 541]	631	3.5e-08	–
CC[C@@H](Nc1nc2ccccc2c2nc(-c3cscc3C)nn12)C(N)=O [Example 542]	0.565	3.55e-09	–
COc1ccc(-c2nc3c4ccc(C(F)(F)F)cc4nc(N[C@@H]4CCCCNC4=O)n3n2)cc1 [Example 548, (3R)-3-{[2-(4-methoxyphenyl)-8-(trifluoromethyl)[1,2,4]triazolo[1,5-c]quinazolin-5-yl]amino}azepan-2-one]	2400	9.46e-07	–
COc1ccc(-c2nc3c4ccc(OC)cc4nc(N[C@@H]4CCCCNC4=O)n3n2)cc1 [Example 549, (3R)-3-{[8-methoxy-2-(4-methoxyphenyl)[1,2,4]triazolo[1,5-c]quinazolin-5-yl]amino}azepan-2-one]	17400	7.33e-08	–
Cn1cc(-c2nc3c4cccc(F)c4nc(N[C@@H]4CCCCNC4=O)n3n2)cn1 [Example 551, (3R)-3-{[7-fluoro-2-(1-methyl-1H-pyrazol-4-yl)[1,2,4]triazolo[1,5-c]quinazolin-5-yl]amino}azepan-2-one]	13.8	1.17e-08	–
O=C1NCCCC[C@H]1Nc1nc2c(F)cccc2c2nc(-c3ccncc3)nn12 [Example 552, (3R)-3-{[7-fluoro-2-(pyridin-4-yl)[1,2,4]triazolo[1,5-c]quinazolin-5-yl]amino}azepan-2-one]	230	1.28e-07	–
O=C1NCCCC[C@H]1Nc1nc2c(Cl)cccc2c2nc(-c3ccc(F)cc3)nn12 [Example 554, (3R)-3-{[7-chloro-2-(4-fluorophenyl)[1,2,4]triazolo[1,5-c]quinazolin-5-yl]amino}azepan-2-one]	2.45	7.68e-09	–
O=C1NCCCC[C@H]1Nc1nc2c(Cl)cccc2c2nc(-c3cccc(F)c3)nn12 [Example 555, (3R)-3-{[7-chloro-2-(3-fluorophenyl)[1,2,4]triazolo[1,5-c]quianzolin-5-yl]amino}azepan-2-one]	6.92	1.82e-08	–
COc1ccc(-c2nc3c4cccc(Br)c4nc(N[C@@H](C(N)=O)C(C)C)n3n2)cc1 [Example 556, N^2-[7-bromo-2-(4-methoxyphenyl)[1,2,4]triazolo[1,5-c]quinazolin-5-yl]-D-valinamide]	0.415	4.03e-10	–
CC[C@@H](Nc1nc2c(Br)cccc2c2nc(-c3ccc(OC)cc3)nn12)C(N)=O [Example 557, (2R)-2-{[7-bromo-2-(4-methoxyphenyl)[1,2,4]triazolo[1,5-c]quinazolin-5-yl]amino}butanamide]	0.865	2.39e-10	–
N#Cc1ccc(-c2nc3c4cccc(Br)c4nc(N[C@@H]4CCCCNC4=O)n3n2)cc1 [Example 558, 4-(7-bromo-5-{[(3R)-2-oxoazepan-3-yl]amino}[1,2,4]triazolo[1,5-c]quinazolin-2-yl)benzonitrile]	0.276	5.96e-09	–
CC[C@@H](Nc1nc2c(Br)cccc2c2nc(-c3ccc(OC)cc3OC(F)(F)F)nn12)C(N)=O [Example 567, (2R)-2-({7-bromo-2-[4-methoxy-2-(trifluoromethoxy)phenyl][1,2,4]triazolo[1,5-c]quinazolin-5-yl}amino)butanamide]	–	1.21e-08	3.05

Now from value to compound, other results behind:

IC50 (AHR [1]; [3]) [nM]	IC50 (AHR [2]) [M]	Compound	IC50 (AHR [1]; read-out: AHR Antagonism Mouse IC50, mouse Hepa 1c1c7 cells, 200 μM kynurenic acid, 20 hours) [nM]
10.4	5.14e-09	N#Cc1ccc(-c2nc3c4cccc(Br)c4nc(N[C@H]4CCCCNC4=O)n3n2)cc1 [Example 559, 4-(7-bromo-5-{[(3S)-2-oxoazepan-3-yl]amino}[1,2,4]triazolo[1,5-c]quinazolin-2-yl)benzonitrile]	–
5.57	3.8e-09	N#Cc1ccc(-c2nc3c4cccc(Br)c4nc(N[C@@H]4CCCNC4=O)n3n2)cc1 [Example 560, 4-(7-bromo-5-{[(3R)-2-oxopiperidin-3-yl]amino}[1,2,4]triazolo[1,5-c]quinazolin-2-yl)benzonitrile]	–
7.55	3.96e-09	N#Cc1ccc(-c2nc3c4cccc(Br)c4nc(N[C@@H]4CCNC4=O)n3n2)cc1 [Example 561, 4-(7-bromo-5-{[(3R)-2-oxopyrrolidin-3-yl]amino}[1,2,4]triazolo[1,5-c]quinazolin-2-yl)benzonitrile]	–
2.98	1.37e-09	CCC[C@@H](Nc1nc2c(Br)cccc2c2nc(-c3ccc(C#N)cc3)nn12)C(=O)NC [Example 562, N^2-[7-bromo-2-(4-cyanophenyl)[1,2,4]triazolo[1,5-c]quinazolin-5-yl]-N-methyl-D-norvalinamide]	–
17.5	1.23e-08	CC[C@H](Nc1nc2c(Br)cccc2c2nc(-c3ccc(C#N)cc3)nn12)C(N)=O [Example 564, (2S)-2-{[7-bromo-2-(4-cyanophenyl)[1,2,4]triazolo[1,5-c]quinazolin-5-yl]amino}butanamide]	–
3.33	8.44e-09	COc1ccc(-c2nc3c4cccc(Br)c4nc(N[C@@H]4CCCCNC4=O)n3n2)c(OC(F)(F)F)c1 [Example 565, (3R)-3-({7-bromo-2-[4-methoxy-2-(trifluoromethoxy)phenyl][1,2,4]triazolo[1,5-c]quinazolin-5-yl}amino)azepan-2-one]	–
20.8	1.76e-07	COc1ccc(-c2nc3c4cccc(Br)c4nc(N[C@H]4CCCCNC4=O)n3n2)c(OC(F)(F)F)c1 [Example 566, (3S)-3-({7-bromo-2-[4-methoxy-2-(trifluromethoxy)phenyl][1,2,4]triazolo[1,5-c]quinazolin-5-yl}amino)azepan-2-one]	–
